Assay results published in publication PMC5727260, “The Sam-Sam interaction between Ship2 and the EphA2 receptor: design and analysis of peptide inhibitors” (Scientific Reports, 2017).
Positions of bridges follow the written chain, without caps; N, C: chain ends. Residues, ends and D or L forms follow the SMILES beside them. Chains are numbered I, II in the order given.

Columns and labels:
Ship2-Sam = target: T1, Ship2-Sam (Homo sapiens, UniProt O15357); assay: SPR binding of peptides to immobilized Ship2-Sam; details: for SPR binding to Ship2-Sam (RUmax): RUmax at 30 and 100 µM peptide, normalized for molecular weight
T1 construct: Its C-terminal sterile alpha motif domain (Ship2-Sam); made in house; host or cells: E. coli
T1 sequence (O15357 1196-1258 limits assumed): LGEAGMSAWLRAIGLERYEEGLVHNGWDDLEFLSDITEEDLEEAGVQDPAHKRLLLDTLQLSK
Procedure: In order to investigate the interaction with Ship2-Sam, all peptides were analysed by SPR experiments (Figs 2, 3 and S5).
SPR experiments were conducted as previously reported.
SPR assays were conducted with the following parameters: (i) flow: 20 μL/min, (ii) contact time: 4.5 min; (iii) running buffer: HBS (HEPES (10 mM), NaCl (150 mM), EDTA (3 mM), pH 7.4).
Reference channel signals were subtracted as blanks and the software BIAevaluation (version 4.1, GE Healthcare) was employed to estimate kinetic and thermodynamic parameters of the complexes.

EphA2 SAM (Homo sapiens) = EphA2 SAM (Homo sapiens) (UniProt P29317); assay: ITC; details: cited from earlier work
Sequence of EphA2 SAM (Homo sapiens) (P29317 901-971): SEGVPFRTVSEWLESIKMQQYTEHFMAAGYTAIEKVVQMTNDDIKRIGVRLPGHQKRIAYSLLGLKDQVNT

SPR binding to Ship2-Sam (RUmax) (Ship2-Sam) | SPR sensorgrams, saturation (Ship2-Sam; wider concentration range (Fig. S5b)) | Compound | Kd (EphA2 SAM (Homo sapiens)) [nM]
not able to bind Ship2-Sam | – | Ac-GHQKRIAY-NH2 [KRI] | –
not able to bind Ship2-Sam | – | Ac-KRIAYKRIAY-NH2 [(KRI)2] | –
– | – | Ship2 SAM (from UniProt O15357) | 750

Compound | SPR binding to Ship2-Sam (RUmax) (Ship2-Sam) | SPR sensorgrams, saturation (Ship2-Sam; wider concentration range (Fig. S5b)) | Kd (EphA2 SAM (Homo sapiens)) [nM]
CC[C@H](C)[C@H](NC(=O)[C@H](CCCNC(=N)N)NC(=O)[C@H](CCCCN)NC(C)=O)C(=O)NCC(=O)N[C@H](C(=O)N[C@@H](CCCNC(=N)N)C(=O)N[C@@H](CC(C)C)C(=O)N1CCC[C@H]1C(=O)NCC(=O)N[C@@H](Cc1c[nH]cn1)C(=O)N[C@@H](CCC(N)=O)C(=O)N[C@@H](CCCCN)C(=O)N[C@@H](CCCNC(=N)N)C(=O)N[C@@H](CSSC[C@H](NC(=O)[C@H](CO)NC(C)=O)C(=O)N[C@@H](CCCCN)C(=O)N[C@@H](CCSC)C(=O)N[C@@H](CCC(N)=O)C(=O)N[C@@H](CCC(N)=O)C(N)=O)C(=O)N[C@@H](C)C(=O)N[C@@H](Cc1ccc(O)cc1)C(=O)N[C@@H](CO)C(=O)N[C@@H](CC(C)C)C(=O)N[C@@H](CC(C)C)C(=O)NCC(=O)N[C@@H](CC(C)C)C(=O)N[C@@H](CCCCN)C(=O)N[C@@H](CC(=O)O)C(=O)N[C@@H](CCC(N)=O)C(=O)N[C@H](C(N)=O)C(C)C)C(C)C [S13-SS] (I: Ac-KRIGVRLPGHQKRCAYSLLGLKDQV-NH2 / II: Ac-SCKMQQ-NH2; disulfide I:14-II:2) | significant dose-response signal variations | does not reach saturation | –
